This is an account of results in patent publication US20050080055A1, “Method of treating breast cancer with androgen receptor antagonists” (priority 2003, published 2005).

Common to all, as to assay: Sulforhodamine B (SRB) cytotoxicity assay
What all share (type): cell-based
For orientation: In SRB staining, fixed cells bind dye roughly in proportion to their protein.

The test system of assay [1] is DU 145. The conditions noted are these: Homo sapiens. How it is done: (§1) PPC-1, LNCaP, TSU, PC-3, and DU145 were grown in PRMI-1640 medium containing 2 mM L-glutamine supplemented with 10% fetal bovine serum (FBS). Cells were maintained in a 5% CO2/95% air humidified atmosphere at 37° C.
(§2) The SRB Assay was used to determine cell number during cytotoxocity experiments. The following protocol was used: • 1. Cells were detached with 0.25% trypsin. • 2. Experimental cultures were cultured in 96-well microtiter plates (200 uL growth medium per well; 1,000-200,000 cells per well). • 3. Cultures were fixed with 50 uL 50% TCA (4° C.). (see cell fixation protocol for details). • 4. Fixed cells were stained with 50 uL 0.4% (wt/vol) SRB in 1% acetic acid for 10 minutes. • 5. SRB was removed and the cultures were quickly* rinsed 5 times with 1% acetic acid to remove unbound dye.** * quickly performing rinsing process is to prevent desorption of protein-bound SRB ** completely remove residual wash solution by sharply flicking plates over sink. • 6. Cultures were air-dried overnight until there is no visible moisture. • 7. The cellular protein-bound SRB was dissolved with 200 uL unbuffered Tris base (10 mM, pH 10.5) for 30 minutes on a rocking platform shaker. • 8. Absorbance was read at 540 nm. Fixation of Cells Attached to the Plastic Substratum
(§3) The following protocol was used for fixing cells: • a. 50 uL of 50% TCA (4° C.) were gently layered on the top of growth medium in each well to make a final TCA concentration of 10%. • b. Cultures were incubated at 4° C. for 1 hour. • c. Cultures were washed 5 times with tap water to remove TCA, growth medium, low-molecular-weight metabolites, and serum protein. • d. Plates were air-dried until there was no visible moisture.
(§4) The IC50s of I-31, I-29, S-NTBA and Compound V in different prostate cancer cell lines (DU 145, PC-3, TSU, PPC-l and LNCaP), in a breast cancer cell line (MCF-7), in other cancer cell lines ([…]) and in a control cell line (CV-1) after 1 and 4 days of incubation with the drug, are shown in Tables 2A and B.

The test system of assay [2] is LNCaP. The conditions noted are these: Homo sapiens. How it is done: as §1, §2, §3, §4
Assay [3] relates to PC-3. The conditions noted are these: Homo sapiens. As to the method: as §1, §2, §3, §4
Assay [4] has as its system PPC-1. The settings on record: Homo sapiens. How it is done: as §1, §2, §3, §4
Assay [5] has as its system TSU. The conditions noted are these: Homo sapiens, 96 h; drug incubation time 4 days. As to the method: as §1, §2, §3, §4
Assay [6] deals with HT-29. The settings on record: Homo sapiens.
In assay [7] the test system is TCCSUP. The settings on record: Homo sapiens, TCC-SUP.
In assay [8] the test system is MCF-7. The settings on record: Homo sapiens. As to the method: as §2
The following protocol was used for fixing cells: • a. 50 uL of 50% TCA (4° C.) were gently layered on the top of growth medium in each well to make a final TCA concentration of 10%. • b. Cultures were incubated at 4° C. for 1 hour. • c. […]

The mark [9] stands for this setting: 24 h, drug incubation time 1 day.
[10] abbreviates: 96 h, drug incubation time 4 days.

A word on the IC50: it is the midpoint of a concentration-inhibition curve. A high value points to lower potency. Take `C[C@@](O)(CBr)C(=O)Nc1ccc([N+](=O)[O-])c(C(F)(F)F)c1` [S-NTBA]: the half-inhibitory concentration (IC50) in assay [1] (DU-145, 24 h, drug incubation time 1 day) is 5.5 ± 0.6 µM; in assay [1] (DU-145, 96 h, drug incubation time 4 days) it was 4.6 µM; in assay [2] (setting [9]) it was 1.6 ± 0.5 µM; in assay [2] (setting [10]), 1.8 µM; in assay [3] (PC-3, 24 h, drug incubation time 1 day), 7.9 ± 0.7 µM; in assay [3] (PC-3, 96 h, drug incubation time 4 days), 3.7 µM. Also, the concentration for half-maximal inhibition (IC50) was 1.7 ± 0.2 µM in assay [4] (PPC-1, 24 h, drug incubation time 1 day); 2.7 µM in assay [4] (PPC-1, 96 h, drug incubation time 4 days); 2.9 µM in assay [5]; 19.8 ± 1 µM in assay [6] (HT-29, 24 h, drug incubation time 1 day); 10.8 µM in assay [6] (HT-29, 96 h, drug incubation time 4 days); 9.5 ± 3.6 µM in assay [7] (setting [9]). In addition, the half-maximal inhibitory concentration (IC50) in assay [7] (setting [10]) was 4.6 µM; in assay [8] (MCF7, 24 h, drug incubation time 1 day), 3.3 ± 0.6 µM; in assay [8] (MCF7, 96 h, drug incubation time 4 days), 3.3 ± 0.6 µM.
